Laboratory results from US20210024649A1, “Methods and Compositions for Antibody and Antibody-loaded Dendritic Cell Mediated Therapy” (The Board of Trustees of the Leland Stanford Junior …, priority 2014, published 2021).

System: tumor-associated DC (TADC)
Test: TADC cultured with alloIgG-IC with or without stimuli
Format: cell-based, mouse
Settings: stimulus added to TADC with alloIgG-IC
Description: BM mononuclear cells were negatively selected using a murine monocyte enrichment kit (Stem Cell Technologies, Vancouver Canada), and FSC^lo/SSC^lo/Gr1^hi/CD115^hi/MHCII^neg cells were sorted with a FACS Aria II (BD Biosciences). Monocytes were cultured for 4-5 days in the presence of 50 ng/ml GM-CSF (PeproTech) to generate DC. For TADC, tumors were digested in Hank's balanced salt solution (HBSS, Gibco) containing 5 mg/mL collagenase IV and 0.01 mg/mL DNase I (Sigma). Cells were applied on a Ficoll gradient and magnetically enriched using CD11b^+ selection kits (StemCells) and Gr1^neg/CD11c^+/MHCII^+ cells were sorted by FACS. In some experiments TADC were activated with 50 ng/mL TNFα (PeproTech) and 500 ng/mL CD40L (PeproTech) recombinant mouse proteins.
To resolve this apparent discrepancy, tumor-associated DC (TADC) (FIG. 7a) were obtained and cultured these cells with tumor lysates or alloIgG-IC. […] Since the expression pattern of Fcγ receptors on TADC was similar to that of BMDC, and several immune stimuli are known to induce MAPK activation in DC, the effect of such stimuli on the response of TADC to allogG-IC was tested.

## polyinosinic:polycytidylic acid [poly I:C]
  activation of TADC and uptake of alloIgG-IC: enabled activation of TADC as well as uptake of alloIgG-IC
